In the supplement of paper PMC6045584:
± gives the standard deviation of the averaged measurements.

Assays:
[1] = compound: CC(=O)NCC(=O)N1[C@@H]2CC[C@H]1c1ccc(Nc3ncc(C(F)(F)F)c(NC4CCC4)n3)cc12; assay: surviving fraction relative to DMSO-only wells; higher = less growth inhibition; conditions: exposure time: 5 days
How it was run: (§1)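 Tumour cell lines were grown to log phase and seeded at 250–500 cells per well in 384-well plates. They were exposed continuously to inhibitors at 0.5, 1, 5, 10, 50, 100, 500 and 1000 nM for five days, beginning 24 hours after seeding. Surviving fraction is CellTiter-Glo luminescence normalised to the median of DMSO-only wells.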

CAMPTOTHECIN = compound: CC[C@@]1(O)C(=O)OCc2c1cc1n(c2=O)Cc2cc3ccccc3nc2-1 [CAMPTOTHECIN]; assay: as above; conditions: exposure time: 5 days
How it was run: as §1

| Test System | surviving fraction ([1]; 0.5 nM) | surviving fraction ([1]; 1 nM) | surviving fraction ([1]; 5 nM) | surviving fraction ([1]; 10 nM) | surviving fraction ([1]; 50 nM) | surviving fraction ([1]; 100 nM) | surviving fraction ([1]; 500 nM) | surviving fraction ([1]; 1000 nM) | surviving fraction (CAMPTOTHECIN; 0.5 nM) | surviving fraction (CAMPTOTHECIN; 1 nM) | surviving fraction (CAMPTOTHECIN; 5 nM) | surviving fraction (CAMPTOTHECIN; 10 nM) | surviving fraction (CAMPTOTHECIN; 50 nM) | surviving fraction (CAMPTOTHECIN; 100 nM) | surviving fraction (CAMPTOTHECIN; 500 nM) | surviving fraction (CAMPTOTHECIN; 1000 nM) |
| --- | --- | --- | --- | --- | --- | --- | --- | --- | --- | --- | --- | --- | --- | --- | --- | --- |
| SYO1 SYNOVIAL | 0.943 ± 0.061 | 0.955 ± 0.024 | 0.93 ± 0.08 | 0.893 ± 0.078 | 0.388 ± 0.06 | 0.266 ± 0.027 | 0.2212 ± 0.0014 | 0.237 ± 0.013 | 0.359 ± 0.023 | 0.663 ± 0.033 | 0.325 ± 0.026 | 0.15 ± 0.024 | 0.0272 ± 0.0011 | 0.0304 ± 0.00084 | 0.0254 ± 0.0012 | 0.0321 ± 0.0019 |
| U2OS BONE | 1.07 ± 0.016 | 1.02 ± 0.04 | 1.04 ± 0.061 | 1.01 ± 0.014 | 0.725 ± 0.015 | 0.483 ± 0.0044 | 0.314 ± 0.016 | 0.225 ± 0.011 | 0.924 ± 0.055 | 0.943 ± 0.054 | 0.948 ± 0.025 | 0.733 ± 0.03 | 0.567 ± 0.011 | 0.464 ± 0.0056 | 0.121 ± 0.013 | 0.0677 ± 0.0097 |
| ASKA SYNOVIAL | 0.973 ± 0.052 | 0.908 ± 0.012 | 0.972 ± 0.085 | 0.912 ± 0.084 | 0.365 ± 0.018 | 0.335 ± 0.023 | 0.34 ± 0.012 | 0.386 ± 0.035 | 0.303 ± 0.029 | 0.641 ± 0.065 | 0.349 ± 0.032 | 0.242 ± 0.025 | 0.118 ± 0.005 | 0.21 ± 0.0046 | 0.157 ± 0.0082 | 0.231 ± 0.0075 |
| BT549 BREAST | 1.11 ± 0.058 | 1.09 ± 0.046 | 1.04 ± 0.12 | 1.05 ± 0.073 | 0.993 ± 0.1 | 0.494 ± 0.071 | 0.409 ± 0.071 | 0.237 ± 0.014 | 0.743 ± 0.096 | 0.672 ± 0.094 | 0.377 ± 0.018 | 0.103 ± 0.014 | 0.032 ± 0.004 | 0.0227 ± 0.00058 | 0.02 | 0.023 ± 0.002 |
| HOS BONE | 1.03 ± 0.013 | 1.013 ± 0.0087 | 1.01 ± 0.025 | 1.006 ± 0.0098 | 0.719 ± 0.025 | 0.675 ± 0.025 | 0.585 ± 0.03 | 0.485 ± 0.012 | 0.902 ± 0.0096 | 0.889 ± 0.017 | 0.758 ± 0.011 | 0.25 ± 0.021 | 0.1 ± 0.0059 | 0.056 ± 0.005 | 0.0223 ± 0.00058 | 0.0237 ± 0.00058 |
| HOSMNG BONE | 0.997 ± 0.028 | 1.01 ± 0.06 | 0.962 ± 0.033 | 0.989 ± 0.016 | 0.886 ± 0.088 | 0.874 ± 0.041 | 0.449 ± 0.019 | 0.392 ± 0.0087 | 0.889 ± 0.11 | 0.973 ± 0.035 | 0.863 ± 0.1 | 0.875 ± 0.042 | 0.322 ± 0.035 | 0.214 ± 0.0082 | 0.0427 ± 0.0038 | 0.0287 ± 0.0015 |
| SNU475 LIVER | 0.9533 ± 0.0031 | 0.962 ± 0.038 | 0.9607 ± 0.0076 | 0.899 ± 0.051 | 0.902 ± 0.035 | 0.804 ± 0.035 | 0.686 ± 0.079 | 0.529 ± 0.041 | 0.34 ± 0.0091 | 0.828 ± 0.034 | 0.635 ± 0.0066 | 0.482 ± 0.023 | 0.162 ± 0.0079 | 0.194 ± 0.012 | 0.103 ± 0.0081 | 0.104 ± 0.0085 |
| HCC202 BREAST | 1.54 ± 0.18 | 1.09 ± 0.18 | 1.44 ± 0.13 | 1.5 ± 0.21 | 1.46 ± 0.16 | 1.32 ± 0.4 | 1.32 ± 0.15 | 1.08 ± 0.26 | 1.05 ± 0.027 | 0.866 ± 0.17 | 0.734 ± 0.082 | 0.691 ± 0.24 | 0.78 ± 0.14 | 0.767 ± 0.1 | 0.478 ± 0.0071 | 0.357 ± 0.0042 |
| CHLA90 AUTONOMIC GANGLIA | 0.951 ± 0.025 | 0.983 ± 0.046 | 0.96 ± 0.028 | 0.91 ± 0.039 | 0.754 ± 0.032 | 0.5867 ± 0.0055 | 0.436 ± 0.045 | 0.301 ± 0.037 | 0.318 ± 0.011 | 0.835 ± 0.041 | 0.584 ± 0.031 | 0.481 ± 0.05 | 0.173 ± 0.0053 | 0.268 ± 0.0099 | 0.133 ± 0.033 | 0.137 ± 0.027 |
